Key:
[1] = test system: myeloperoxidase (MPO) activity; assay: Semi chronic inflammation of mouse ears, MPO activity; assay type: in vivo, C57BL/6 mice; conditions: 11 d
Method: (§1) […] mice of the C57BL/6 strain are used. Inflammation is induced on mouse ears with either AtRA, 9-cis RA or TPA by topical application. Inflammation is measured objectively by determination of the activity of myeloperoxidase (MPO) being directly correlated to the infiltration of polymorphonuclear white blood cells and by the determination of mRNA expression of c-jun, a protein implicated in the AP-1 transduction pathway according to known methods, see e.g. P. L. Stanley et al., Skin Pharmacol. 4, 262-271 (1991) (MPO assay), N. Basset-Sequin et al., J. Invest. Dermatol. 94, 418-422 (1990), F. J. Rauscher et al., Cell 52, 471-480 […], P. Sassone-Corn et al., Nature 326, 507-510 (1987), and M. Pfahl, Endocr. Rev. 14, 651-658, 1993, which are incorporated by reference regarding the experimental method.
(§2) In the “acute inflammation” test, mice are treated topically (epicutaneously), orally or intraperitoneally, daily for 4 days. In the “semi chronic inflammation” test, mice are treated topically according to the schedules given below. For each experiment, a group of at least 4 mice of both sexes are used in the defined condition, regarding placebo, vehicle control, compound, topical formulation, oral formulation, dosage and concentration. The topical vehicle consists of ethanol/PEG 400/water (3:1:1).
(§3) The anti-inflammatory effect of topical RXR antagonists is tested by determination of myeloperoxidase activity in % of vehicle controls. The effect of the RXR antagonist compound 15 is also compared with the well known anti-inflammatory effect of the two corticosteroids, clobetasol dipropionate and betamethasone propionate. For induction of inflammation, AtRA and TPA are applied topically to the skin and the administration of the test compounds, the RXR antagonist compound 15 and the two corticosteroids are given in the following order, according to the schedule, described in: Skin Pharmacol 1991; 4 (4): 262-271, Stanley P L. et.al.: RA or TPA is administered on days 0, 2, 4, 7 and 9, compound 15 or corticosteroids are administered twice daily on day 7, day 8 and day 9 and once on day 10 in the morning. The mice are sacrificed on day 10 in the afternoon.

[2] = test system: c-Jun mRNA expression; assay: Semi chronic inflammation of mouse ears, c-Jun mRNA (northern blot); assay type: in vivo, C57BL/6 mice
Method: as §1, §3
In the same experiment, the expression of c-Jun mRNA is determined by northern blot and expressed in percent of the vehicle controls.

[3] = test system: humans; conditions: clinical trials by other authors; cited from earlier work
[4] = biological target: T1, RXRγ (Homo sapiens, UniProt P48443); assay: Retinoid binding assay, RXRγ; design: made in house; host or cells: E. coli; conditions: [3H] 9-cis retinoic acid 20 nM; read-out: Binding Affinity IC50 RXR γ
T1 sequence (P48443 1-463): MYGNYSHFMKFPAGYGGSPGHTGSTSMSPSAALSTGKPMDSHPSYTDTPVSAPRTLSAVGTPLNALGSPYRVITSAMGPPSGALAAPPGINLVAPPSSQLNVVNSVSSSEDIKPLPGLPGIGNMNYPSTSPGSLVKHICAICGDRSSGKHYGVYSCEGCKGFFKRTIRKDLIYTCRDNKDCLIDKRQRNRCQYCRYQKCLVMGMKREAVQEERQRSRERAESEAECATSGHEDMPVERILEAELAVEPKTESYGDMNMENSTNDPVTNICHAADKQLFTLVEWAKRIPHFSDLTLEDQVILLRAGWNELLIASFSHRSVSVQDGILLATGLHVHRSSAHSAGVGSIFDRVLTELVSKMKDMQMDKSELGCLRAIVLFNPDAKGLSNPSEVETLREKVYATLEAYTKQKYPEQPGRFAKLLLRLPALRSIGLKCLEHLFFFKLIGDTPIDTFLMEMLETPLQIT
From the text: The DEF domains of RAR's and the full length RXR's, expressed in E.coli, are used to measure competitive retinoid binding. […] 9-cis retinoic acid (for RXR's), respectively. […] Separation of bound from free radioactivity is achieved by charcoal/dextran (RAR's) or by desalting columns (RXR's). […] Retinoid Activation Assays

[5] = test system: myeloperoxidase (MPO) activity; assay: Acute inflammation of mouse ears, MPO activity; assay type: in vivo, C57BL/6 mice; conditions: TPA 0.005% alone, topical, 4 d
Method: as §1, §2
The anti-inflammatory effect of topical RXR antagonist compound 15 is tested by determination of myeloperoxidase activity in % of vehicle treated controls. For induction of inflammation 9-cis RA or TPA are applied topically to the skin, daily for 4 days. The RXR antagonist compound 15 (see Table 1) is administered topically one hour after the application of the inflammation inducing agent. The mice are sacrified 24 hours after the last treatment.

[6] = TPA 0.005% + test compound 0.05% topical
[7] = TPA 0.005% + test compound 0.05%

In the case of `CCC(=O)O[C@]1(C(=O)CCl)[C@@H](C)C[C@H]2[C@@H]3CCC4=CC(=O)C=C[C@]4(C)[C@@]3(F)[C@@H](O)C[C@@]21C`, the “MPO activity (% vehicle treated mice)” value [1, 6] is reported as 239 ± 43 % vehicle treated mice and the “c-Jun mRNA expression (% of vehicle treated mice)” value [2, 7] is reported as 43 % of vehicle treated mice.

In the case of `CC1=C(/C=C/C(C)=C/C=C/C(C)=C/C(=O)O)C(C)(C)CCC1` [At RA, all-trans retinoic acid], the “MPO activity (% vehicle treated mice)” value ([1]; At RA 0.05% alone, topical) is reported as 1371 ± 345 % vehicle treated mice.

For `Cc1cc2c(cc1C1(c3ccc(C(=O)O)cn3)CC1)C(C)(C)CCC2(C)C` [Compound 3, 6-[1-(3,5,5,8,8-Pentamethyl-5,6,7,8-tetrahydro-naphthalen-2yl)-cyclopropyl]-nicotinic acid, reference compound], the “Serum lipids in clinical trials (humans)” value [3] is given as “marked triglyceridemia” and the IC50 [4] is given as 0.09 µM.

In the case of `CCCCCCCCCCCCCC(=O)O[C@@H]1[C@@H](C)[C@@]2(O)[C@@H](C=C(CO)C[C@]3(O)C(=O)C(C)=C[C@@H]23)[C@@H]2C(C)(C)[C@]12OC(C)=O` [TPA, 12-O-tetradecanoylphorbol-13-acetate], the “MPO activity (% vehicle treated mice)” value [5] is reported as 376 ± 72 % vehicle treated mice, the “MPO activity (% vehicle treated mice)” value ([1]; TPA 0.005% alone, topical) is reported as 572 ± 61 % vehicle treated mice and the “c-Jun mRNA expression (% of vehicle treated mice)” value ([2]; TPA 0.005% alone) is reported as 163 % of vehicle treated mice.

In the case of betamethasone propionate, the “MPO activity (% vehicle treated mice)” value [1, 6] is reported as 257 ± 38 % vehicle treated mice and the “c-Jun mRNA expression (% of vehicle treated mice)” value [2, 7] is reported as 24 % of vehicle treated mice.
